Test results taken from patent US11466025B2, “Thienopyridine derivatives containing unsaturated aliphatic olefinic bond, preparation method and use thereof” (Tianjin Institute of Pharmaceutical Research Co., Ltd., priority 2017, dated 2022).
Like-named read-outs stand apart in the source and are kept apart here. Values belong to the molecule of their own block, whether it stands above or below them.

Key:
[1] = tested on: platelet aggregation induced by ADP; experiment: Test of inhibitory effect of compounds on platelet aggregation in rats (ex vivo, ADP-induced, after intragastric administration); design: species or system SD rats; settings: for ED50: Rattus norvegicus; for Inhibition rate (%): platelet aggregation, control = 100%; for Aggregation rate (%): 2 h after administration, ADP 20 uM
Protocol: Test of Inhibitory Effect of Compounds on Platelet Aggregation in Rats Healthy male SD rats were selected and randomly divided into solvent control group, positive drug control group and test compound group. Intragastric administration was carried out, with the administration volume being 10 ml/kg˜bw. […] The platelet count was adjusted to 5×10^8 cells/ml with PPP.

[2] = Stability of the compounds under high temperature, high humidity and light (influence factors, HPLC); assay type: physicochemical
Protocol: Study on the Stability of the Compounds:
The stability of the compound is investigated under the conditions of high temperature, high humidity and light. The testing conditions for high performance liquid chromatography (HPLC) are as follows:
Instrument: high performance liquid chromatography;
Column: Inertsil C8-3, 150 mm×4.6 mm, 5 μm;
Mobile phase A: acetonitrile; mobile phase B: 5 mM ammonium dihydrogen phosphate;
Detection wavelength: 220 nm;
Column temperature: 35° C.;
Sample chamber temperature: 25° C.;
Column: Agilent Poroshell 120 EC-C18, 100 mm×4.6 mm, 2.7 μm;
Column temperature: 30° C.;
Other conditions are the same as that in Method 1.
Samples relating to Compound I-2 were tested using Method 2 and other samples were tested using Method 1. The test results of the influence factors are shown in Table 14, and the test results of the light-avoidance stability test are shown in Table 15.

[3] = tested on: arteriovenous bypass thrombosis in rats; experiment: Test of effect of compounds on arteriovenous bypass thrombosis in rats; assay type: in vivo, SD rats; settings: rats; for ED50: Rattus norvegicus, po, dry weight of thrombus from arteriovenous bypass, intragastric, read-out: ED50; for Inhibition rate (%): dry weight of thrombus
Protocol: Test of Effect of Compounds on Arteriovenous Bypass Thrombosis in Rats
Male SD rats were randomly divided into solvent control group, positive drug control group and test compound group. The solvent control group was administered a corresponding volume of the solvent. […] Rats were anesthetized with 4% chloral hydrate (0.32 g/kg), and fixed on the operating table at the supine position. The right common carotid artery and the left external jugular vein were separated, and was each inserted with a Teflon tube filled with normal saline solution containing heparin (50 U/mL), which were connected through another Teflon tube. A 6 cm long cotton thread was placed at the joints of the two tubes. After 2.5 h of administration, the arteriovenous loop was opened in each group and circulated for 15 min. The blood flow was interrupted, and the cotton thread wrapped with the thrombus was quickly removed and weighed. The weight of the cotton thread was subtracted to obtain the wet weight of the thrombus, and then it was baked in the oven to constant weight and weighed. The weight of the cotton thread was subtracted to obtain the dry weight of the thrombus.

[4] = tested on: bleeding time of amputated tail in rats; experiment: Test of hemorrhagic side effects: bleeding time of amputated tail in rats; assay type: in vivo, SD rats; settings: intragastric, tail cut 1 h after administration, linear equation fitted
Protocol: Test of Hemorrhagic Side Effects:
1 h after administration, the rats were anesthetized by intraperitoneal injection of 20% urethane (1 g/kg), and the tail was cut off 5 mm from the tip of the tail, which was then placed in a test tube containing 5 ml normal saline at 37° C. The time from tail cut to cease of bleeding was recorded as the bleeding time. The increasing rate of bleeding time in each dose group was calculated, with the bleeding time of the rats in the control group being 100%.

[5] = for Concentration of incubated compound in human plasma / Incubated compound in human plasma, %: 1 μM
Protocol: Plasma samples (double sample) containing 1 μM of the compounds of the present invention, clopidogrel hydrogen sulfate (LBGL), 2-oxo product (2-Oxo) were prepared from human blank plasma, and incubated at 37° C. 50 μL of the above incubated plasma samples were taken at different time points, and 100 μL of precipitant (acetonitrile:methanol=7:3) and 50 μL of internal standard were added. The mixture was vortexed for 1 min and centrifuged for 10 min. 100 μL of the supernatant was taken into an inner inserted tube, centrifuged for 5 min, and injected for LC-MS/MS analysis.
Preparation of blank control sample (PPT-0): 100 μL of frozen human blank plasma was taken, to which 195 μL of acetonitrile and 100 μL of internal standard were added, followed by 5 μL of the compound of the present invention, clopidogrel or 2-oxo product (20 μM). The mixture was vortexed for 1 min and centrifuged for 10 min. 100 μL of the supernatant was taken into an inner inserted tube, centrifuged for 5 min, and injected for LC-MS/MS analysis.

[6] = 5 days, High temperature 60° C.
[7] = 10 days, High temperature 60° C.
[8] = 30 days, High temperature 60° C.
[9] = inhibition of ADP-induced platelet aggregation, rats, oral administration, read-out: ED50

Structure (SMILES): CCC/C=C/C(=O)Oc1cc2c(s1)CCN([C@H](C(=O)OC)c1ccccc1Cl)C2 [Compound I-5, Methyl (S,E)-2-(2-chlorophenyl)-2-(2-(2-hexenoyloxy)-6,7-dihydrothieno[3,2-c]pyridin-5(4H)-yl)-acetate]
ED50 ([1]; Platelet, po): 1.03 mg/kg
Inhibition rate (%) ([1]; rats, intragastric 0.5 mg/kg): 19.5%
Inhibition rate (%) ([1]; rats, intragastric 1 mg/kg): 52.8%
Inhibition rate (%) ([1]; rats, intragastric 2 mg/kg): 74.3%
Aggregation rate (%) ([1]; rats, intragastric 0.5 mg/kg): 48.4 ± 17.3%
Aggregation rate (%) ([1]; rats, intragastric 1 mg/kg): 28.3 ± 11.7 %
Aggregation rate (%) ([1]; rats, intragastric 2 mg/kg): 15.4 ± 14.7 %

Chromatographic purity % ([2]; 0 day, 0point): 99.118%
Individual maximum impurity % ([2]; 0 day, 0point): 0.135%
Chromatographic purity % ([2]; 5 days, High humidity RH92.5%): 99.253%
Individual maximum impurity % ([2]; 5 days, High humidity RH92.5%): 0.127%
Chromatographic purity % [2, 6]: 96.953%
Individual maximum impurity % [2, 6]: 0.510%
Chromatographic purity % ([2]; 5 days, Light 4500 ± 500 LX): 91.635%
Individual maximum impurity % ([2]; 5 days, Light 4500 ± 500 LX): 1.094%
Chromatographic purity % ([2]; 10 days, High humidity RH92.5%): 99.202%
Individual maximum impurity % ([2]; 10 days, High humidity RH92.5%): 0.104%
Chromatographic purity % [2, 7]: 93.371%
Individual maximum impurity % [2, 7]: 1.224%
Chromatographic purity % ([2]; 10 days, Light 4500 ± 500 LX): 80.960%
Individual maximum impurity % ([2]; 10 days, Light 4500 ± 500 LX): 2.821%
Chromatographic purity % ([2]; 30 days, High humidity RH92.5%): 98.933%
Individual maximum impurity % ([2]; 30 days, High humidity RH92.5%): 0.172%
Chromatographic purity % [2, 8]: 80.070%
Individual maximum impurity % [2, 8]: 5.418%
Chromatographic purity % ([2]; 30 days, Light 4500 ± 500 LX): 59.908%
Individual maximum impurity % ([2]; 30 days, Light 4500 ± 500 LX): 8.206%
Structure (SMILES): COC(=O)[C@H](c1ccccc1Cl)N1CCc2sc(OC(=O)/C=C/c3ccc(OC)cc3)cc2C1 [Compound D-8, Methyl (S,E)-2-(2-chlorophenyl)-2-(2-(3-(4-methoxyphenyl)acryloyloxy)-6,7-dihydrothieno[3,2-c]pyridin-5(4H)-yl)-acetate, reference compound]

Structure (SMILES): C=C/C=C/C(=O)Oc1cc2c(s1)CCN([C@H](C(=O)OC)c1ccccc1Cl)C2 [Compound I-3, Methyl (S,E)-2-(2-chlorophenyl)-2-(2-(2,4-pentadienoyloxy)-6,7-dihydrothieno[3,2-c]pyridin-5(4H)-yl)-acetate]
ED50 [1, 9]: 1.04 mg/kg
Inhibition rate (%) ([1]; rats, intragastric 1 mg/kg): 44.0%
Inhibition rate (%) ([1]; rats, intragastric 2 mg/kg): 97.6%
Inhibition rate (%) ([1]; rats, intragastric 4 mg/kg): 100%
Aggregation rate (%) ([1]; rats, intragastric 1 mg/kg): 33.6 ± 31.3%
Aggregation rate (%) ([1]; rats, intragastric 2 mg/kg): 1.44 ± 2.5 %
Aggregation rate (%) ([1]; rats, intragastric 4 mg/kg): 0.0 ± 0.0 %

Structure (SMILES): COC(=O)[C@H](c1ccccc1Cl)N1CCc2sc(OC(C)=O)cc2C1.Cl [Compound D-9, Methyl (S,E)-2-(2-chlorophenyl)-2-(2-acetoxy-6,7-dihydrothieno[3,2-c]pyridin-5(4H)-yl)-acetate Hydrochloride, reference compound]
Chromatographic purity % ([2]; 0 day, 0point): 99.802%
Individual maximum impurity % ([2]; 0 day, 0point): 0.062%
Chromatographic purity % ([2]; 5 days, High humidity RH92.5%): 29.362%
Individual maximum impurity % ([2]; 5 days, High humidity RH92.5%): 20.760%
Chromatographic purity % [2, 6]: 92.725%
Individual maximum impurity % [2, 6]: 2.897%
Chromatographic purity % ([2]; 5 days, Light 4500 ± 500 LX): 97.637%
Individual maximum impurity % ([2]; 5 days, Light 4500 ± 500 LX): 0.946%
Chromatographic purity % ([2]; 10 days, High humidity RH92.5%): 3.827%
Individual maximum impurity % ([2]; 10 days, High humidity RH92.5%): 26.942%
Chromatographic purity % [2, 7]: 84.395%
Individual maximum impurity % [2, 7]: 5.254%
Chromatographic purity % ([2]; 10 days, Light 4500 ± 500 LX): 96.472%
Individual maximum impurity % ([2]; 10 days, Light 4500 ± 500 LX): 1.621%
Individual maximum impurity % ([2]; 30 days, High humidity RH92.5%): 52.717%
Chromatographic purity % [2, 8]: 39.866%
Individual maximum impurity % [2, 8]: 9.740%
Chromatographic purity % ([2]; 30 days, Light 4500 ± 500 LX): 91.198%
Individual maximum impurity % ([2]; 30 days, Light 4500 ± 500 LX): 3.728%

Structure (SMILES): CC(=O)Oc1cc2c(s1)CCN(C(C(=O)C1CC1)c1ccccc1F)C2 (centres unmarked) [Prasugrel, reference compound]
ED50 [1, 9]: 0.612 mg/kg
Inhibition rate (%) ([1]; rats, intragastric 0.25 mg/kg): 13.3%
Inhibition rate (%) ([1]; rats, intragastric 0.5 mg/kg): 37.8%
Inhibition rate (%) ([1]; rats, intragastric 1 mg/kg): 75.0%
Aggregation rate (%) ([1]; rats, intragastric 0.25 mg/kg): 52.1 ± 6.6%
Aggregation rate (%) ([1]; rats, intragastric 0.5 mg/kg): 37.4 ± 12.3 %
Aggregation rate (%) ([1]; rats, intragastric 1 mg/kg): 15.0 ± 10.2 %
ED50 [3]: 1.57 mg/kg
Inhibition rate (%) ([3]; intragastric 0.1 mg/kg): 6.0%
Inhibition rate (%) ([3]; intragastric 0.3 mg/kg): 9.0%
Inhibition rate (%) ([3]; intragastric 1 mg/kg): 35.7%
Inhibition rate (%) ([3]; intragastric 3 mg/kg): 70.2%
ED200 (dose that doubled the bleeding time) [4]: 0.513 mg/kg

Structure (SMILES): CC/C=C/C(=O)Oc1cc2c(s1)CCN([C@H](C(=O)OC)c1ccccc1Cl)C2 [Compound I-4, Methyl (S,E)-2-(2-chlorophenyl)-2-(2-(2-pentenoyloxy)-6,7-dihydrothieno[3,2-c]pyridin-5(4H)-yl)-acetate]
ED50 [1, 9]: 1.27 mg/kg
Inhibition rate (%) ([1]; rats, intragastric 0.5 mg/kg): 26.2%
Inhibition rate (%) ([1]; rats, intragastric 1 mg/kg): 38.2%
Inhibition rate (%) ([1]; rats, intragastric 2 mg/kg): 62.9%
Inhibition rate (%) ([1]; rats, intragastric 4 mg/kg): 78.4%
Inhibition rate (%) ([1]; rats, intragastric 8 mg/kg): 100.0%
Aggregation rate (%) ([1]; rats, intragastric 0.5 mg/kg): 44.3 ± 25.8%
Aggregation rate (%) ([1]; rats, intragastric 1 mg/kg): 37.1 ± 20.8%
Aggregation rate (%) ([1]; rats, intragastric 2 mg/kg): 22.3 ± 17.2 %
Aggregation rate (%) ([1]; rats, intragastric 4 mg/kg): 13.0 ± 11.3 %
Aggregation rate (%) ([1]; rats, intragastric 8 mg/kg): 0.0 ± 0.0 %

Concentration of incubated compound in human plasma ([5]; 0 min): 0.965 µM
Incubated compound in human plasma, % ([5]; 0 min): 98.1%
Concentration of incubated compound in human plasma ([5]; 5 min): 1.045 µM
Incubated compound in human plasma, % ([5]; 5 min): 106%
Concentration of incubated compound in human plasma ([5]; 10 min): 1.000 µM
Incubated compound in human plasma, % ([5]; 10 min): 102%
Concentration of incubated compound in human plasma ([5]; 20 min): 0.987 µM
Incubated compound in human plasma, % ([5]; 20 min): 100%
Concentration of incubated compound in human plasma ([5]; 30 min): 1.025 µM
Incubated compound in human plasma, % ([5]; 30 min): 104%
Concentration of incubated compound in human plasma ([5]; 45 min): 0.995 µM
Incubated compound in human plasma, % ([5]; 45 min): 101%
Concentration of incubated compound in human plasma ([5]; 60 min): 0.981 µM
Incubated compound in human plasma, % ([5]; 60 min): 100%
Concentration of incubated compound in human plasma ([5]; 90 min): 0.924 µM
Incubated compound in human plasma, % ([5]; 90 min): 94.0%
Concentration of incubated compound in human plasma ([5]; 120 min): 0.944 µM
Incubated compound in human plasma, % ([5]; 120 min): 96.0%
Stability in human plasma ([5]; plasma, 2 h): substantially stable
Structure (SMILES): COC(=O)[C@H](c1ccccc1Cl)N1CCc2sccc2C1 [Clopidogrel, reference compound]
ED50 [1, 9]: 4.13 mg/kg
Inhibition rate (%) ([1]; rats, intragastric 2.5 mg/kg): 26.5%
Inhibition rate (%) ([1]; rats, intragastric 5 mg/kg): 59.7%
Inhibition rate (%) ([1]; rats, intragastric 10 mg/kg): 90.5%
Aggregation rate (%) ([1]; rats, intragastric 2.5 mg/kg): 44.1 ± 13.5%
Aggregation rate (%) ([1]; rats, intragastric 5 mg/kg): 24.2 ± 10.6 %
Aggregation rate (%) ([1]; rats, intragastric 10 mg/kg): 5.7 ± 7.5 %
ED50 [3]: 11.8 mg/kg
Inhibition rate (%) ([3]; intragastric 3 mg/kg): 24.2%
Inhibition rate (%) ([3]; intragastric 10 mg/kg): 41.5%
Inhibition rate (%) ([3]; intragastric 30 mg/kg): 72.6%
